Experimental data taken from patent US12605480B2, “Tough gel-based drug delivery compositions and methods thereof” (priority 2019, dated 2026).
Values after ≈ are worked out from the molar mass of the structure shown.

Assays:
[1] = Solubility of CORT in water and other solutions; assay type: physicochemical
Experimental: The solubility of CORT in various water and other solutions were evaluated over a period of 24 h.

[2] = cited from earlier work
[3] = rat, in vivo; cited from earlier work

Q: Which solubility at 24 h ([1]; DMSO:ddH2O 1:4, aqueous with cosolvent or surfactant or cyclodextrin, DMSO:ddH2O ratio of 1:4) does the source give for `CC1(C)O[C@@H]2C[C@H]3[C@@H]4CCC5=CC(=O)C=C[C@]5(C)[C@@]4(F)[C@@H](O)C[C@]3(C)[C@]2(C(=O)CO)O1` [Triamcinolone acetonide] here?
A: Its solubility at 24 h is roughly 1000 µg/mL.

Q: And the solubility at 24 h ([1]; ddH2O and water-based solutions of 2% alginate and 12% acrylamide, 24 h)?
A: The solubility at 24 h was 10 to 100 µg/mL (≈ 23 to 230 µM).

Q: And the solubility ([1]; water 37° C., input of the FE model, read-out: maximum solubility sol(water 37° C.) / Csol)?
A: The solubility was 33 µg/mL (≈ 75.9 µM).

Q: What about the water solubility [2] of the same compound?
A: Its water solubility is 20 µg/mL (≈ 46 µM).

Q: What about the “acute toxicity (oral LD50)” value [3] of the same compound?
A: Its value is 1451 mg/kg.
